From patent US20240391902A1, “Crystalline Form of Compound” (Shenzhen Forward Pharmaceuticals Co., Limited, priority 2020, published 2024)
“Also recorded” adds a separate entry of the source. Where two headings read alike, the source gives them in different places.

Key:
[1] = Chemical and physical stability of the salts at the end of the preparation; type: physicochemical
Description: It is crucial for drug development whether the salts obtained as above have chemical and physical stability at the end of the preparation.

[2] = Drug absorption test in male Han-Wister rats; type: in vivo; conditions: for F: intragastric versus intravenous administration, doses 80, 100, 93.2, 81.1 mg/kg for Example 1, 2, 3, 4
Experimental: Intravenous administration: Three healthy male Han-Wister rats having a body weight of 250-350 g were provided by Beijing Vital River Laboratory Animal Technology Co., Ltd. The above compound of Example 1 was administered intravenously at the doses (calculated based on free base) listed in Table 1 below, respectively. Before administration and 15 min, 0.5 h, 1.0 h, 2.0 h, 4.0 h, 8.0 h, 12 h, and 24 h after administration, jugular vein puncture was performed to take 0.05 mL of blood, plasma was separated and prepared, and the drug concentration in the plasma was measured by liquid chromatography-tandem mass spectrometry (LC-MS) to obtain a drug concentration-time curve.
Intragastric administration: Twelve healthy male Han-Wister rats having a body weight of 250-350 g were provided by Beijing Vital River Laboratory Animal Technology Co., Ltd. and randomly divided into 4 groups. The above compounds of Example 1, Example 2, Example 3 and Example 4 were administered intragastrically at the doses (calculated based on free base) listed in Table 2 below, respectively. Before administration and 15 min, 0.5 h, 1.0 h, 2.0 h, 4.0 h, 8.0 h, 12 h, and 24 h after administration, jugular vein puncture was performed to take 0.05 mL of blood, plasma was separated and prepared, and the drug concentration in the plasma was measured by liquid chromatography-tandem mass spectrometry (LC-MS) to obtain a drug concentration-time curve.

[3] = Solid solubility test (2 h and 24 h); type: physicochemical; conditions: for Solubility measured at 2 h: 37° C., based on free base
Experimental: 5 samples were weighed for each amorphous salt solid (equivalent to 20 mg of free base), and 10 mL of the following solvents were respectively added: 0.1N HCl solution (pH 1.0), 50 mM phosphate buffer (pH 4.5), FeSSIF-V1 (pH 5.0), FaSSIF-V1 (pH 6.5) and SGF (pH 2.0), and stirred at 37° C. for 2 h. The suspension was then centrifuged at 37° C., the supernatant was measured for solubility by HPLC, and the solid fraction was measured for XRPD. The target solubility was at least 2 mg (based on free base)/mL.

[4] = Solid storage stability test; type: physicochemical; conditions: for chemical and physical stability after storage: solid/25° C./60% RH/open/1 week and/or solid/60° C./closed container/1 week
Experimental: Each amorphous salt solid was weighed (two 2 mg samples were weighed for purity testing after solid storage stability study, and one 10 mg sample was weighed for XRPD testing after solid storage stability study) and placed in a glass vial. In a 25° C./60% RH solid storage stability test, the amorphous salt solid was placed in a 25° C./60% RH constant temperature and humidity chamber, and placed in the dark for 1 week (i.e. “solid/25° C./60% RH/open/1 week”), and in a 60° C. solid storage stability test, the amorphous salt solid was sealed in an oven at 60° C. and heated for 1 week in the dark (i.e. “solid/60° C./closed container/1 week”). Then the sample was taken out for purity testing, crystal form detection and appearance observation, respectively.

[5] = Solid solubility test (2 h and 24 h); type: physicochemical; conditions: for Solubility measured at 24 h: 37° C., based on free base
[6] = intragastric administration, doses 80, 100, 93.2, 81.1 mg/kg for Example 1, 2, 3, 4 (calculated based on free base)
[7] = Test BS1: solid/25° C./60% RH/open/1 week
[8] = Test BS2: solid/60° C./closed container/1 week

## C=CC(=O)Nc1cc(Nc2ncnc(-c3cn(C)c4ccccc34)n2)c(OC)cc1N(C)CCN(C)C [Example 14]
[1]; listed as amorphous sulfosalicylate salt (Sample No. Y11526-25-FD13-1,4-dioxane)
  chemical and physical stability at the end of the preparation: chemically and physically stable

## C=CC(=O)Nc1cc(Nc2ncnc(-c3cn(C)c4ccccc34)n2)c(OC)cc1N(C)CCN(C)C [Example 15]
[1]; listed as amorphous sulfosalicylate salt (Sample No. Y11526-25-FD12-1,4-dioxane)
  chemical and physical stability at the end of the preparation: chemically and physically stable

## C=CC(=O)Nc1cc(Nc2ncnc(-c3cn(C)c4ccccc34)n2)c(OC)cc1N(C)CCN(C)C [Example 2]
[2]; [6]
  AUC0-t: 13060 ng·h/mL
  Cmax: 1024 ng/mL
  T1/2: 6.65 h
[2]
  F: 29.3%
[3]; Test ES4: FaSSIF-V1 (pH 6.5)
  pH measured at 2 h: (6.5)
  Solubility measured at 2 h: >2 mg/mL
[4]; [7]
  Color: no color change
  Morphology (XRPD crystallinity): amorphous (FIG. 90),
  Morphology (agglomeration, appearance): no agglomeration
[4]; [8]
  Color: no color change
  Morphology (XRPD crystallinity): amorphous (FIG. 90),
  Morphology (agglomeration, appearance): no agglomeration
[4]; listed as 1 eq. hydrochloride salt
  chemical and physical stability after storage: chemically unstable
[4]; listed as amorphous 1 eq. hydrochloride salt
  chemical and physical stability after storage: chemically unstable
[4]; solid/25° C./60% RH/open/1 week, listed as amorphous 1 eq. hydrochloride salt
  physical and chemical stability (in words): good physical and chemical stability

## C=CC(=O)Nc1cc(Nc2ncnc(-c3cn(C)c4ccccc34)n2)c(OC)cc1N(C)CCN(C)C [Example 1]
[2]; [6]
  AUC0-t: 3968 ng·h/mL
  Cmax: 583 ng/mL
[2]
  F: 11.1%
[2]; male, Han-Wister, rat, plasma, iv, 1 mg/kg, intravenous administration, 1.0 mg/kg (calculated based on free base), rat plasma
  half-life: 2.99 h
[2]; male, Han-Wister, rat, plasma, iv, 1 mg/kg, intravenous administration, 1.0 mg/kg (calculated based on free base), rat plasma, read-out: AUC0-t
  AUC0-t: 446 ng·h/mL
[2]; male, Han-Wister, rat, plasma, iv, 1 mg/kg, intravenous administration, 1.0 mg/kg (calculated based on free base), rat plasma, read-out: Cmax
  Cmax: 364 ng/mL
[2]; male, Han-Wister, rat, plasma, po, 81.1 mg/kg, intragastric administration, doses 80, 100, 93.2, 81.1 mg/kg for Example 1, 2, 3, 4 (calculated based on free base)
  half-life: 3.36 h
[3]; Test ES4: FaSSIF-V1 (pH 6.5)
  pH measured at 2 h: (6.8)
  Solubility measured at 2 h: >2 mg/mL
[4]; [7]
  Color: no color change
  Morphology (XRPD crystallinity): amorphous (FIG. 89),
  Morphology (agglomeration, appearance): no agglomeration
[4]; [8]
  Color: no color change
  Morphology (XRPD crystallinity): medium crystallinity
[4]; solid/25° C./60% RH/open/1 week, listed as amorphous free base
  physical and chemical stability (in words): good physical and chemical stability
[4]; solid/60° C./closed container/1 week, listed as amorphous free base
  physical and chemical stability (in words): transformed from amorphous to a moderate crystallinity
[5]; Test ES3: FeSSIF-VI (pH 5.0)
  pH measured at 24 h: (5.0)
  Solubility measured at 24 h: >2000 µg/mL
[5]; Test ES4: FaSSIF-VI (pH 6.5)
  pH measured at 24 h: (6.8)
  Solubility measured at 24 h: >2000 µg/mL

## C=CC(=O)Nc1cc(Nc2ncnc(-c3cn(C)c4ccccc34)n2)c(OC)cc1N(C)CCN(C)C [Example 3]
[2]; [6]
  AUC0-t: 11213 ng·h/mL
  Cmax: 1020 ng/mL
  T1/2: 6.04 h
[2]
  F: 27.0%
[3]; Test ES4: FaSSIF-V1 (pH 6.5)
  pH measured at 2 h: (6.1)
  Solubility measured at 2 h: >2 mg/mL
[4]; [7]
  Color: slight color change
  Morphology (XRPD crystallinity): amorphous (FIG. 91),
  Morphology (agglomeration, appearance): partial agglomeration
[4]; [8]
  Color: no color change
  Morphology (XRPD crystallinity): amorphous (FIG. 91),
  Morphology (agglomeration, appearance): no agglomeration
[4]; listed as 2 eq. hydrochloride salt
  chemical and physical stability after storage: physically unstable
[4]; listed as amorphous 2 eq. hydrochloride salt
  chemical and physical stability after storage: physically unstable
[4]; solid/25° C./60% RH/open/1 week, listed as amorphous 2 eq. hydrochloride salt
  physical and chemical stability (in words): slight color change and showed a certain hygroscopicity (partial agglomeration)
[4]; solid/60° C./closed container/1 week, listed as amorphous 2 eq. hydrochloride salt
  physical and chemical stability (in words): good physical and chemical stability

## C=CC(=O)Nc1cc(Nc2ncnc(-c3cn(C)c4ccccc34)n2)c(OC)cc1N(C)CCN(C)C [Example 13]
[1]; listed as amorphous 2 eq. p-tosylate salt
  chemical and physical stability at the end of the preparation: chemically stable; also recorded: physically unstable due to caking and fusion to a glassy state upon short exposure to environmental conditions

## C=CC(=O)Nc1cc(Nc2ncnc(-c3cn(C)c4ccccc34)n2)c(OC)cc1N(C)CCN(C)C [Example 4]
[2]; [6]
  AUC0-t: 9703 ng·h/mL
  Cmax: 1376 ng/mL
  T1/2: 6.17 h
[2]
  F: 26.8%
[3]; Test ES4: FaSSIF-V1 (pH 6.5)
  pH measured at 2 h: (6.5)
  Solubility measured at 2 h: >2 mg/mL
[4]; [7]
  Color: no color change
  Morphology (XRPD crystallinity): amorphous (FIG. 93),
  Morphology (agglomeration, appearance): no agglomeration
[4]; [8]
  Color: no color change
  Morphology (XRPD crystallinity): amorphous (FIG. 93),
  Morphology (agglomeration, appearance): no agglomeration
[4]; listed as 1 eq. mesylate salt
  chemical and physical stability after storage: chemically and physically stable
[4]; listed as amorphous 1 eq. mesylate salt
  chemical and physical stability after storage: chemically and physically stable
[4]; solid/25° C./60% RH/open/1 week, listed as amorphous 1 eq. mesylate salt
  physical and chemical stability (in words): good physical and chemical stability
[4]; solid/60° C./closed container/1 week, listed as amorphous 1 eq. mesylate salt
  physical and chemical stability (in words): good physical and chemical stability
[5]; Test ES3: FeSSIF-VI (pH 5.0)
  pH measured at 24 h: (5.0)
  Solubility measured at 24 h: >2000 µg/mL
[5]; Test ES4: FaSSIF-VI (pH 6.5)
  pH measured at 24 h: (6.6)
  Solubility measured at 24 h: >2000 µg/mL

## C=CC(=O)Nc1cc(Nc2ncnc(-c3cn(C)c4ccccc34)n2)c(OC)cc1N(C)CCN(C)C [Example 10]
[3]; Test ES4: FaSSIF-V1 (pH 6.5)
  XRPD measured at 2 h (solid fraction): hydrobromide
  pH measured at 2 h: (6.4)
[3]; Test ES5: SGF (pH 2.0)
  Solubility measured at 2 h: >2 mg/ml mg/mL
[4]; [7]
  Color: no color change
  Morphology (XRPD crystallinity): no crystal form
[4]; [8]
  Color: no color change
  Morphology (XRPD crystallinity): no crystal form
[4]; listed as 1 eq. hydrobromide salt
  chemical and physical stability after storage: chemically and physically stable
[4]; listed as crystalline 1 eq. hydrobromide salt
  chemical and physical stability after storage: chemically and physically stable
[4]; solid/25° C./60% RH/open/1 week, listed as crystalline 1 eq. hydrobromide salt
  physical and chemical stability (in words): good physical and chemical stability
[4]; solid/60° C./closed container/1 week, listed as crystalline 1 eq. hydrobromide salt
  physical and chemical stability (in words): good physical and chemical stability

## C=CC(=O)Nc1cc(Nc2ncnc(-c3cn(C)c4ccccc34)n2)c(OC)cc1N(C)CCN(C)C [Example 12]
[1]; listed as amorphous sulfate salt
  chemical and physical stability at the end of the preparation: chemically stable; also recorded: physically unstable due to a certain hygroscopicity
